Source: the NIST ThermoML archive (doi:10.1021/je800883b)

What was measured:
[1] = 101 kPa, Liquid, Pycnometric method
[2] = xn = mol fraction of the nth substance listed; details: 101 kPa, Liquid, Pycnometric method

c1ccccc1 [benzene]
[1]
Details	mass density [kg/m3]
303.15 K	868.1
313.15 K	857.4
323.15 K	846.6

c1ccccc1 [benzene] + CCC(C)=O
[2], x2 = 0
Details	mass density [kg/m3]
303.15 K	868.1
313.15 K	857.4
323.15 K	846.6

CCC(C)=O [butanone]
[1]
Details	mass density [kg/m3]
303.15 K	794.6
313.15 K	784
323.15 K	773.3

CCC(C)=O [butanone] + C1CCCCC1
mass density [kg/m3], [2]
Details	x1 = 0.1066	x1 = 0.2093	x1 = 0.3084	x1 = 0.4042	x1 = 0.5064	x1 = 0.6055	x1 = 0.7007	x1 = 0.8015	x1 = 0.907	x1 = 1
303.15 K	768	768.3	769.5	771.3	773.6	776.2	779.8	784	789.6	794.6
313.15 K	758.3	757.4	758.2	759.9	762.4	765.1	769.2	772.7	777.8	784
323.15 K	747.4	746.5	747.3	749.2	751.3	754.4	757.8	761.7	767.2	773.3

CCC(C)=O [butanone] + CCCCCC
mass density [kg/m3], [2]
Details	x1 = 0.1057	x1 = 0.2048	x1 = 0.3035	x1 = 0.4071	x1 = 0.5035	x1 = 0.6029	x1 = 0.7042	x1 = 0.8059	x1 = 0.9033	x1 = 1
303.15 K	660	670	680.6	692.9	706	720.7	736.8	754.9	774	794.6
313.15 K	650.4	659	669.5	682	694.7	709.2	725.3	742.9	763	784
323.15 K	639.6	648	658.5	670.4	683.8	698.2	714.2	732.2	752.3	773.3

CCC(C)=O [butanone] + c1ccccc1
mass density [kg/m3], [2]
Details	x1 = 0.101	x1 = 0.1999	x1 = 0.2988	x1 = 0.3969	x1 = 0.4996	x1 = 0.5988	x1 = 0.6993	x1 = 0.7931	x1 = 0.8961	x1 = 1
303.15 K	861.2	854.2	847.1	839.9	832.7	825.2	817.5	809.9	802.2	794.6
313.15 K	850.6	843.5	836.6	829.3	822.1	814.6	806.9	799.4	791.7	784
323.15 K	839.9	832.9	825.9	818.7	811.5	803.9	796.4	788.9	781.1	773.3

C1CCCCC1 [cyclohexane]
[1]
Details	mass density [kg/m3]
303.15 K	768.9
313.15 K	759.2
323.15 K	748.7

C1CCCCC1 [cyclohexane] + CCC(C)=O
[2], x2 = 0
Details	mass density [kg/m3]
303.15 K	768.9
313.15 K	759.2
323.15 K	748.7

CCCCCC [hexane]
[1]
Details	mass density [kg/m3]
303.15 K	650.9
313.15 K	641.7
323.15 K	630.9

CCCCCC [hexane] + CCC(C)=O
[2], x2 = 0
Details	mass density [kg/m3]
303.15 K	650.9
313.15 K	641.7
323.15 K	630.9
